Results as given in patent US20240366569A1, “COMBINATIONS FOR TREATING CANCER” (Purdue Pharmaceutical Products L.P., priority 2023, published 2024).
Entries after “also recorded” stand apart in the source; their conditions may differ.

What was measured:
[1] = system: MC38 subcutaneous murine colorectal syngeneic model; test: MC38 subcutaneous murine colorectal syngeneic model: tumour burden and survival; type: in vivo, female C57BL/6 mice
Experimental: Specifically, the effects of the combined therapy Tinostamustine and an […] antibody in the treatment of the MC38 subcutaneous murine colorectal syngeneic model in female C57BL/6 mice following 3 dose cycles was assessed. MC38 is a commonly used murine model for colorectal carcinoma.
Six groups of mice were randomly allocated a group, hereafter referred to as Groups 1 to 6, as in Table 3.
Tinostamustine was administered intravenously, specifically by slow intravenous injection at a rate of ˜60 s per mouse. Two groups of mice were administered tinostamustine at a dose of 5 mg/kg once weekly, either as a monotherapy (Group 3) or as a combination therapy (Group 5). […]
The MC38 cells were maintained in vitro with DMEM medium supplemented with 10% fetal bovine serum at 37° C. in an atmosphere of 5% CO2 in air. The cells in exponential growth phase were harvested and quantitated by cell counter before tumour inoculation. […]
Tumour volumes were measured twice a week after randomization in two dimensions using a caliper, and the volume was expressed in mm3 using the formula: “V=(L×W×W)/2, where V was tumour volume, L was tumour length (the longest tumor dimension) and W was tumour width (the longest tumour dimension perpendicular to L). […] The body weights and tumour volumes were measured by using StudyDirector™ software (version 3.1.399.19). […]

[2] = MC38 model: tolerability and body weight; type: in vivo, female C57BL/6 mice
Experimental: After tumour cell inoculation, the animals were checked daily for morbidity and mortality. During routine monitoring, the animals were checked for treatment effects on tumour growth, behaviour such as mobility, food and water consumption, body weight gain/loss (Body weights) were measured twice a week after randomization), eye/hair matting and any other abnormalities. Mortality and observed clinical signs were recorded for individual animals in detail.
Tumour volumes were measured twice a week after randomization in two dimensions using a caliper, and the volume was expressed in mm3 using the formula: “V=(L×W×W)/2, where V was tumour volume, L was tumour length (the longest tumor dimension) and W was tumour width (the longest tumour dimension perpendicular to L). Dosing as well as tumour and body weight measurements were conducted in a Laminar Flow Cabinet. The body weights and tumour volumes were measured by using StudyDirector™ software (version 3.1.399.19).

[3] = Myelosuppression on administration of Tinostamustine at the indicated dosage ranges; type: in vivo; conditions: below 40 mg/m^2 body surface area
Experimental: More particularly, the dosage ranges of Tinostamustine described herein may preferably avoid Tinostamustine causing cytotoxicity to immune cells. For comparison, the doses at which Tinostamustine are administered in accordance with the present invention are below those normally used to achieve an anti-cancer neoplastic effect (e.g. via inducing cytotoxicity in tumour cells) with Tinostamustine as a monotherapy (typically […]).

[4] = Phase 1B clinical trial of Tinostamustine in combination with Nivolumab: safety, tolerability, recommended dose; type: in vivo, human
Excerpt: The clinical study relates to an open-label, single-centre, phase-1B clinical trial to determine the safety, tolerability, recommended dose and anti-cancer efficacy of Tinostamustine in combination with the anti-PD-1 monoclonal antibody (mAb), Nivolumab in patients with advanced melanoma receiving standard-of-care treatment. Tinostamustine is a compound having the following structural formula: […]
A total of 17 patients with advanced melanoma were recruited to a Phase IB study to characterise the safety, tolerability, recommended dose and preliminary efficacy in the treatment of cancer of Tinostamustine in combination with the immune checkpoint inhibitor, Nivolumab.
Tinostamustine was administered intravenously. Four patients were administered tinostamustine at a dose of 15 mg/m^2 (referred to as dose level 1—DL1) for each cycle. Thirteen patients were administered with Tinostamustine at a dose of 30 mg/m^2 (referred to as dose level 2—DL2) for each cycle.
The primary endpoint of the study was dose limiting toxicity (DLT) observed during the first 6 weeks of trial treatment. […]

[5] = patients with advanced melanoma; cited from earlier work
metastatic melanoma = conditions: cited from earlier work
[6] = system: renal cell carcinoma (RCC); conditions: cited from earlier work
advanced melanoma [7] = conditions: in vivo; cited from earlier work
advanced melanoma [8] = conditions: cited from earlier work

Row | Molecule | tumour burden / anti-tumour effect ([1]; dose group not specified) | survival of mice ([1]; vs vehicle control) | tolerability ([2]; 3 weeks of treatment) | body weight ([2]; mean body weight during treatment) | myelosuppression [3] | safety concerns ([4]; Tinostamustine doses between 10 mg/m^2 and 30 mg/m^2 body surface area) | recommended dose ([4]; in combination with Nivolumab 3 mg/kg) | high-grade adverse events [5] | response rate (metastatic melanoma) | response rate [6] | median overall survival (advanced melanoma [7]) | objective response rate (advanced melanoma [8]; first-line) | progression-free survival (advanced melanoma [8]; first-line) | overall survival improved by (advanced melanoma [8]; versus dacarbazine, first-line) | overall survival HR (advanced melanoma [8]; versus dacarbazine, p<0.001) | progression-free survival HR (advanced melanoma [8]; versus dacarbazine, p<0.001) | progression-free survival improved by (advanced melanoma [8]; versus dacarbazine)
1 | Cn1c(CCCCCCC(=O)NO)nc2cc(N(CCCl)CCCl)ccc21 [Tinostamustine] | has anti-tumour effect | significantly prolonged the survival; also recorded: increases survival | well-tolerated | no loss of body weight; also recorded: weight gain | no myelosuppression | without any significant safety concerns | 30 mg/m^2 |  |  |  |  |  |  |  |  |  | 
2 | Ipilimumab: anti-CTLA-4 monoclonal antibody |  |  |  |  |  |  |  | 28 % of patients | 15-20% | minimal activity |  |  |  |  |  |  | 
3 | Nivolumab |  |  |  |  |  |  |  | 23 % of patients | 43% | ~25% | not reached | 40.0% | 5.1 months | 58% | 0.42 | 0.43 | 57%
